According to PMC11490872, “Drug-resistant menin variants retain high binding affinity and interactions with MLL1” (The Journal of Biological Chemistry, 2024):
Positions count from the first letter of the chain named. Where no end group is shown, it is not given here.

Assays:
[1] = molecular target: T1, menin^G331D (Homo sapiens, UniProt O00255, G326D); assay: FP binding of fluorescein-labeled MLL1 peptides to menin^G331D; conditions: versus menin^WT, Fig. 1B (FP and ITC)
T1 construct: The gene encoding full-length human menin was cloned into a pET32a expression vector; thioredoxin-His6 (cleaved yes); made in house; host or cells: E. coli BL21(DE3)
T1 sequence (O00255 1-610 G326D): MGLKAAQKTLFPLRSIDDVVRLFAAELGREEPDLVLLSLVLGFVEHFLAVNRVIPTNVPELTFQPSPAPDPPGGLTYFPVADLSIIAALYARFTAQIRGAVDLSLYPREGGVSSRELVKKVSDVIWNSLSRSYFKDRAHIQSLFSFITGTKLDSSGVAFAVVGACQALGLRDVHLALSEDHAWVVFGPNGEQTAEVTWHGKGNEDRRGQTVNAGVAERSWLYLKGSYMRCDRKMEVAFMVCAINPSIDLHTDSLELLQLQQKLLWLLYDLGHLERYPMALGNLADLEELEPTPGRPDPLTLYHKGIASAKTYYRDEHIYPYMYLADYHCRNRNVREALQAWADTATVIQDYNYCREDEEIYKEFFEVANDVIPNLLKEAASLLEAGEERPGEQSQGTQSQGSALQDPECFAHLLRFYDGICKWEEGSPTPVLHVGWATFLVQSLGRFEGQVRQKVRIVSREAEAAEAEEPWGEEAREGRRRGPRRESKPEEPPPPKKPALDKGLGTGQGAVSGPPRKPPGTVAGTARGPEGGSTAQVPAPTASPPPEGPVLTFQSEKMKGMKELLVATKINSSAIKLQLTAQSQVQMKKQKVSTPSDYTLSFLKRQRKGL
Experimental: (§1) FP binding experiments utilized MLL1-derived peptides, FLSN-MLL1^4-43 at 4 nM and FLSN-MLL1^4-15 at 10 nM, titrated against a range of menin concentrations in the FP buffer (50 mM Tris pH 7.5, 50 mM NaCl, 1 mM TCEP) to obtain Kd measurements. Protein-peptide complexes were incubated for 1 h before measuring the change in fluorescence polarization and anisotropy at 525 nm after excitations at 495 nm using the PHERAstar microplate reader (BMG) ([2]).
(§2) FP competition experiments used FLSN-MLL1^4-43 at 4 nM and menin at 4 nM against varying concentrations of unlabeled MLL1 peptides in FP buffer for IC50 determination. Protein-peptide complexes were incubated for 1 h before unlabeled peptide competitors were added to ensure complete binding. Unlabeled peptide competitors were incubated with the protein-peptide complexes for 3 h before measurement using the PHERAstar microplate reader ([25]). Experiments with Revumenib were run with the same steps and conditions but used 5% DMSO in the final solution. Kd and IC50 values were calculated using GraphPad Prism 10 by plotting mP values measured for each protein/MLL1 peptide or Revumenib as a function of protein/MLL1 peptide (or Revumenib) concentration ([25]). All FP binding and competition experiments were run in triplicate.

[2] = molecular target: T2, menin^G331R (Homo sapiens, UniProt O00255, G326R); assay: FP binding of fluorescein-labeled MLL1 peptides to menin^G331R; conditions: versus menin^WT, Fig. 1B (FP and ITC)
T2 construct: The gene encoding full-length human menin was cloned into a pET32a expression vector; thioredoxin-His6 (cleaved yes); made in house; host or cells: E. coli BL21(DE3)
T2 sequence (O00255 1-610 G326R): T1 sequence (O00255 1-610 G326D) with D326R
Experimental: as §1, §2

[3] = test system: wild-type, M327I, T349M, and G331R menin bound to FLSN-MLL1^4-43; assay: FP competition, stated over wild-type, M327I, T349M and G331R menin; type: binding, human; conditions: versus MLL1^46
Experimental: as §2

[4] = test system: patients with MLL1-r and NPM1-mut acute leukemias; conditions: cited from earlier work
[5] = molecular target: menin; parameters: method as in PMID 20961854, PMID 22936661; conditions: cited from earlier work
[6] = molecular target: MLL1 MBM2 24-40 (Homo sapiens) (UniProt Q03164); conditions: cited from earlier work
[7] = molecular target: MLL1 MBM1 6-13 (Homo sapiens) (UniProt Q03164); conditions: cited from earlier work
[8] = molecular target: T3, menin^G331D-FLSN-MLL1^4-43 (Homo sapiens, UniProt O00255, G326D); assay: FP competition, displacement of FLSN-MLL1^4-43 from menin^G331D; type: binding; conditions: even with increased incubation times, Fig. S6
T3 construct: The gene encoding full-length human menin was cloned into a pET32a expression vector; thioredoxin-His6 (cleaved yes); made in house; host or cells: E. coli BL21(DE3); probe peptide from GenScript
T3 sequence (O00255 1-610 G326D): T1 sequence (O00255 1-610 G326D)
Experimental: To better understand the mechanism of MLL1 binding with menin mutants, we performed FP competition experiments using FLSN-MLL1^4-43 as a fluorescent probe for competitive displacement by MLL1 peptides ([25]). First, we tested competition with MLL1^160 and found very similar IC50 values for wild-type menin and the three mutants M327I, T349M, and G331R, ranging between 4.1 and 8 nM (Fig. 3, A and B). […] We have hypothesized that the lack of competition with MLL1 for the menin^G331D mutant might result from a much slower dissociation rate of the menin^G331D–MLL1 complex, and to evaluate this we performed time-dependent competition experiments with MLL1^160 and MLL1^46. Standard conditions in the FP assay include 3 h incubations of the menin-FLSN-MLL1^4-43 complex with competitors.
as §2

[9] = Phase 1/2, AML patients with KMT2A (MLL1) rearrangements and NPM1 mutations

MLL1 MBM1 6-13 (Homo sapiens), sequence (Q03164 whole entry, looked up, tested part not stated): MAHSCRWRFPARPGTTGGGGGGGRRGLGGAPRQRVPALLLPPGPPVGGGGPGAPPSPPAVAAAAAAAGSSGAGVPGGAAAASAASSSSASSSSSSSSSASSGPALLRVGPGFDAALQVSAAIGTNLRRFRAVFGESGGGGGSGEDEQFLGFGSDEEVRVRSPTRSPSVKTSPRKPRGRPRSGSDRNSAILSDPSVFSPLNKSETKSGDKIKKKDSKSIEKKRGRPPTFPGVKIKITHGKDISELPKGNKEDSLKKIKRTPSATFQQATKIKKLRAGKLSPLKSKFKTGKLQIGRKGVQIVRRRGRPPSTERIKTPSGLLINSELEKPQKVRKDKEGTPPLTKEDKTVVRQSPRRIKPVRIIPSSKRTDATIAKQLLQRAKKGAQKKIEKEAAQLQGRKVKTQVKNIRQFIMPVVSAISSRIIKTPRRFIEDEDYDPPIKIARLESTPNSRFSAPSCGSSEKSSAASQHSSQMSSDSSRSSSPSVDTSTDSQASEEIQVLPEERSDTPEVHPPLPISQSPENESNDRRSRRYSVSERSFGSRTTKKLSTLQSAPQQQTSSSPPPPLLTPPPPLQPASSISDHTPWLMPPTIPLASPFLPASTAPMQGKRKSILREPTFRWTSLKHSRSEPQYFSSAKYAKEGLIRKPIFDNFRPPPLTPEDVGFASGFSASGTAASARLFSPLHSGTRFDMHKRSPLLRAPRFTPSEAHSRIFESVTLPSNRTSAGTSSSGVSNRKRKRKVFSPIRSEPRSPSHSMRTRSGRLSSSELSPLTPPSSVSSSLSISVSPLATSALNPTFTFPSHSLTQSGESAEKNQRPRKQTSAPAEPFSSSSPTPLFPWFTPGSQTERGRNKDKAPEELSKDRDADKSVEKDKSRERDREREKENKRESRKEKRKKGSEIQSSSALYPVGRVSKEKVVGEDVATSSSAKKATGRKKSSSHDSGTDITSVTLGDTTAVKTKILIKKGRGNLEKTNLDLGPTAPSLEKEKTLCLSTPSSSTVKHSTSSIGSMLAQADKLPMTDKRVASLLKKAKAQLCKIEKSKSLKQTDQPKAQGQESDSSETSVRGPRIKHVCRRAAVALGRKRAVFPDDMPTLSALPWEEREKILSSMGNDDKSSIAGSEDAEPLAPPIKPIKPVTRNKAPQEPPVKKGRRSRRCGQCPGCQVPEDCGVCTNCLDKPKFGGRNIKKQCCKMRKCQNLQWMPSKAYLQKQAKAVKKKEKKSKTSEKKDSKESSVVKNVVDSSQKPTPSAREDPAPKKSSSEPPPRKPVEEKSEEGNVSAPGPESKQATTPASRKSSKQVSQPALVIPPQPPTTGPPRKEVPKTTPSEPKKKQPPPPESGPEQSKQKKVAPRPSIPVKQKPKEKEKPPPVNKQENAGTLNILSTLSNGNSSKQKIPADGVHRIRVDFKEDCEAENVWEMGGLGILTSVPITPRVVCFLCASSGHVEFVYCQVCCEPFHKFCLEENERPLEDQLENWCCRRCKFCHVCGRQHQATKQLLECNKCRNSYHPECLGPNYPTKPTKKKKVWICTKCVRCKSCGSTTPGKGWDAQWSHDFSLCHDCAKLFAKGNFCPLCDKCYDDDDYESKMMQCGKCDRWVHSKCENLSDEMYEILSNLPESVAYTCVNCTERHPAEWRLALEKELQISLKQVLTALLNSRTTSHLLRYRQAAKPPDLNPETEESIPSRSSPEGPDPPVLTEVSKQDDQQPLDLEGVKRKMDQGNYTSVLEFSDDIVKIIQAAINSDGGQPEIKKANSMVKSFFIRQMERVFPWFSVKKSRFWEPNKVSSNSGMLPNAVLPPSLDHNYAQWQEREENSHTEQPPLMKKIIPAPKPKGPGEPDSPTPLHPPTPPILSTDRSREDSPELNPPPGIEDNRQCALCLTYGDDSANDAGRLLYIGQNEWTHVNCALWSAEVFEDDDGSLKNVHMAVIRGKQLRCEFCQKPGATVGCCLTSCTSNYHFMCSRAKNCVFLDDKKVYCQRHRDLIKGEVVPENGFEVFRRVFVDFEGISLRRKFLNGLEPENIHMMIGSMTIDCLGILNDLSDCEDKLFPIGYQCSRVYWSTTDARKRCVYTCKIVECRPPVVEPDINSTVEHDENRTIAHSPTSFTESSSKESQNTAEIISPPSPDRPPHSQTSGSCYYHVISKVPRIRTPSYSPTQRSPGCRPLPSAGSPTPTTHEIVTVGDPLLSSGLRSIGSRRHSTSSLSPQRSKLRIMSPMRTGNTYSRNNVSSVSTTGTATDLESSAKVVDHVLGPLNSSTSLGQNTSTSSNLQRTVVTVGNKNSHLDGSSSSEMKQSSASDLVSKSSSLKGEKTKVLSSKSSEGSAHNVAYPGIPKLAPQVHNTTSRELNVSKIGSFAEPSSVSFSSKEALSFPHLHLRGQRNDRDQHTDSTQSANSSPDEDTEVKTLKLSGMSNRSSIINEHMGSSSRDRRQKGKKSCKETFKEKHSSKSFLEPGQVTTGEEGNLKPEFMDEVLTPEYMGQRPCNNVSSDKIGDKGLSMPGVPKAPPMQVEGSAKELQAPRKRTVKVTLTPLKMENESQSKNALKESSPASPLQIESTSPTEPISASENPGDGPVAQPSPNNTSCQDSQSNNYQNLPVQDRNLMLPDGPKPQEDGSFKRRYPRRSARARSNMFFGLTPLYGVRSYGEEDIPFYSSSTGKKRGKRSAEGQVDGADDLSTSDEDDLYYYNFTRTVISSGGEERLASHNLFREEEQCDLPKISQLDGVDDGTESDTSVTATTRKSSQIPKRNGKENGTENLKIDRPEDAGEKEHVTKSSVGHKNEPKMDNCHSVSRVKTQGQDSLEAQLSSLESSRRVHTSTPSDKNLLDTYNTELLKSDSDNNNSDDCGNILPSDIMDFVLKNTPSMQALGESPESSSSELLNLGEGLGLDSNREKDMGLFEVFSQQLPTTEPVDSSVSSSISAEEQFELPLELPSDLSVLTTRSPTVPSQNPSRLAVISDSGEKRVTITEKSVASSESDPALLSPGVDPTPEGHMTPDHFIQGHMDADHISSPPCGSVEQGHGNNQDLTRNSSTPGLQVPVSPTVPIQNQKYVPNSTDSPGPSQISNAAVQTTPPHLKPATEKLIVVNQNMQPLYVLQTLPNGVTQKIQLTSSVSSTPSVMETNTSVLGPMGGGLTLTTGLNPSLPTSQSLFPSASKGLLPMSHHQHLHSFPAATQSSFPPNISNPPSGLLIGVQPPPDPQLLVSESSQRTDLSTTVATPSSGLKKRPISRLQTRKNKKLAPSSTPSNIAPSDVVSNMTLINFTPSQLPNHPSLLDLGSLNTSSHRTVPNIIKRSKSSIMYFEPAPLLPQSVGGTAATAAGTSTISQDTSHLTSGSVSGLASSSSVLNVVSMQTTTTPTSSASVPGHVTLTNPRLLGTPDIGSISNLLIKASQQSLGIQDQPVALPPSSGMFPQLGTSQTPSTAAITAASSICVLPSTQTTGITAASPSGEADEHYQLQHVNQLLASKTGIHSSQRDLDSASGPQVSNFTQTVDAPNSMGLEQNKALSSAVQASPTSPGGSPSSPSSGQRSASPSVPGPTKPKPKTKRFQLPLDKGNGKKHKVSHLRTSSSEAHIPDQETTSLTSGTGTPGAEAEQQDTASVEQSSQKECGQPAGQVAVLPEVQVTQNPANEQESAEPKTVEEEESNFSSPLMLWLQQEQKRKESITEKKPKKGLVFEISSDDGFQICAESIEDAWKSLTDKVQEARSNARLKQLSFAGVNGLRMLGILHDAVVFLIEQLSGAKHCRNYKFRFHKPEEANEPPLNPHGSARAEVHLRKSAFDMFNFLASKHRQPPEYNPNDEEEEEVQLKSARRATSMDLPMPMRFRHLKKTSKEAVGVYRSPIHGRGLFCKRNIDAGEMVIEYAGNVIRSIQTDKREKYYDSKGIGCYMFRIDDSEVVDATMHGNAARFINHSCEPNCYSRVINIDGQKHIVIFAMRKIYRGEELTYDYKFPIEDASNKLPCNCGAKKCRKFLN

## C[C@H](NC(=O)[C@@H](N)CO)C(=O)N[C@@H](CCCNC(=N)N)C(=O)N[C@@H](Cc1c[nH]c2ccccc12)C(=O)N[C@@H](CCCNC(=N)N)C(=O)N[C@@H](Cc1ccccc1)C(=O)N1CCC[C@H]1C(=O)N[C@@H](C)C(=O)N[C@@H](CCCNC(=N)N)C(=O)N1CCC[C@H]1C(=O)NCC(=O)N[C@H](C(N)=O)[C@@H](C)O [MLL1^4-15]
[1]
  decrease in binding affinity for G331D: ~10 fold
[2]
  decrease in binding affinity for G331R: approximately 3 fold
[3]
  weaker competition activity than MLL1^46: 3 orders of magnitude

## CNc1nc(NC2CCN(Cc3ccc4c(cc(C#N)n4C[C@H](C)N4CCN(S(C)(=O)=O)CC4)c3C)CC2)c2cc(CC(F)(F)F)sc2n1 [Ziftomenib]
[4]; [9]
  complete remission: ~35%
  overall response rate: ~45%
[4]; phase 1/2 first-in-human trials, MLL1-r and NPM1-mut acute leukemias
  rate of complete remission: over 30%

## MBM1: menin binding motif 1, amino acid residues 6 to 13 of MLL1 (RWRFPARP; UniProt Q03164 6-13, looked up, fragment)
[1]
  decrease in binding affinity for G331D: 10 fold
[2]
  decrease in binding affinity for G331R: 3 fold

## MBM2: menin binding motif 2, residues 24 to 40 of MLL1 (RRGLGGAPRQRVPALLL; UniProt Q03164 24-40, looked up, fragment)
[5]
  Kd: 1000 nM

## Menin (from UniProt O00255)
[6]
  Kd: 1000 nM
[7]
  Kd: 56 nM

## SARWRFPARPGTTGGGGGGGRRGLG-NH2 (C-terminus assumed) [MLL1^4-28, reference compound]
[8]
  competition for the menin^G331D variant: no significant competition
